Data taken from BigSolDB 2.1.

Nc1cc(C(=O)O)ccc1C(=O)O
solubility (mole fraction)
Conditions	in ethanol	in isopentanol	in isopropanol	in methanol	in n-butanol	in n-propanol	in sec-butanol	in tert-butanol
303.15 K	0.0349	0.00536	0.0211	0.0685	0.00721	–	0.00989	0.0216
303.25 K	–	–	–	–	–	0.0137	–	–
308.15 K	0.0383	0.00583	0.0236	–	0.00854	–	0.0119	0.0237
308.75 K	–	–	–	–	–	0.0165	–	–
313.15 K	0.0422	0.00643	–	0.0794	0.0098	–	0.0139	0.0268
313.75 K	–	–	–	–	–	0.0193	–	–
318.15 K	0.0461	–	0.0293	0.0853	0.0112	0.0223	–	0.0293
323.15 K	0.051	0.00764	0.0326	0.0917	0.0131	0.0256	0.0192	0.0315
328.15 K	0.0552	–	–	0.0982	–	0.0293	0.0222	0.0351
333.15 K	0.06	0.00895	–	0.105	0.0168	0.0334	–	0.0375
338.15 K	0.0655	0.00972	0.0441	0.112	0.0189	0.0392	0.0297	0.0421
